Source: patent publication US5427766A, “Radiolabeled steroids for use in radiochemical-guided surgery” (priority 1993, dated 1995)

Assay: physchem
Assay type: physicochemical
Details: solid state
Description: (Z)-Stannyl olefin 4 (25 mg, 41 μmol) was added to 1 mL of chloroform and iodine (10.9 mg, […]) was added with stirring. Rapid decoloration took place and an additional amount of iodine (1 mg) was added which imparted a pink color. Several drops of methanolic potassium fluoride was added which precipitated a tin complex. To the slurry was added 0.5 mL of saturated […] and the organic phase was separated, dried over sodium sulfate and evaporated to give an oil. This material was chromatographed using 2 percent methanol in chloroform on a 1 cm×10 cm flash gel column to give (Z)-iodo olefin 5 (15.3 mg) in 84 percent yield as a white solid.

SMILES: CC[C@H]1C[C@@]2(C)[C@@H](CC[C@@]2(O)/C=C\I)[C@@H]2CCc3cc(O)ccc3[C@@H]12 [(Z)-iodo olefin 5, 11β-Ethyl-17α-(Z)-(iodovinyl)estra-3,17β-diol]
- protodestannylation in product (a week at 25° C., HPLC 254 nm): 3.4 area percent
- suspect (E)-iodo (a week at 25° C., HPLC 254 nm): 10.9 area percent
- remaining at 168 h: 74%
